From ChEMBL document CHEMBL1147893, “Carbonic anhydrase inhibitors: the X-ray crystal structure of the adduct of N-hydroxysulfamide with isozyme II explains why this new zinc binding function is effective in the design of potent inhibitors” (Bioorg Med Chem Lett, 2007)

What was measured:
[1] = molecular target: Carbonic anhydrase 1 (Homo sapiens) (UniProt P00915)
Description: Inhibition of human recombinant carbonic anhydrase 1

[2] = molecular target: Carbonic anhydrase 2 (Homo sapiens) (UniProt P00918)
Description: Inhibition of human recombinant carbonic anhydrase 2

[3] = molecular target: Carbonic anhydrase 9 (Homo sapiens) (UniProt Q16790)
Description: Inhibition of human recombinant carbonic anhydrase 9 catalytic domain by CO2 hydrase method

[4] = molecular target: Carbonic anhydrase 12 (Homo sapiens) (UniProt O43570)
Sequence of Carbonic anhydrase 12 (Homo sapiens) (O43570 whole entry): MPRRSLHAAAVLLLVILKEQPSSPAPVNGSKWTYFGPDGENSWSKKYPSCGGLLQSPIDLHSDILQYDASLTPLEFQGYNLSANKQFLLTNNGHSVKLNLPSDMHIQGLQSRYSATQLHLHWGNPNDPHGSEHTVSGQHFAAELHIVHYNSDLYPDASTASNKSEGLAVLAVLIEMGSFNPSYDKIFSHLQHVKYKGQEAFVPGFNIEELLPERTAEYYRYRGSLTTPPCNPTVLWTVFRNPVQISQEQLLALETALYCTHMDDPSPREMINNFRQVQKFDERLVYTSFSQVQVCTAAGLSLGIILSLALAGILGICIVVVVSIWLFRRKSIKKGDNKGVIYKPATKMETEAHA
Description: Inhibition of human recombinant carbonic anhydrase 12 catalytic domain by CO2 hydrase method

Sequence of Carbonic anhydrase 1 (Homo sapiens) (P00915 2-261 limits assumed): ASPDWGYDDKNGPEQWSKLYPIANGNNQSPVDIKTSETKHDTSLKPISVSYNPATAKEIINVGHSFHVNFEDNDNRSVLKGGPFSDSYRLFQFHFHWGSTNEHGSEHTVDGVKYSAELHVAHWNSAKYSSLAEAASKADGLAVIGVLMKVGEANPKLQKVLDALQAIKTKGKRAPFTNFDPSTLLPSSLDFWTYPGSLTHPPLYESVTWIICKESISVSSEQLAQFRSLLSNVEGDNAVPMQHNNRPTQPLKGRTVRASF

In the case of NS(=O)(=O)O, the Kinact [1] is reported as 0.21 10^5nM, the Kinact [2] is reported as 0.39 10^6nM and the Kinact [3] is reported as 9.2 10^3nM. For the same compound, the Kinact [4] was 10.7 10^3nM.
In the case of O=S(=O)([O-])[O-].[Na+].[Na+], the Kinact [1] is reported as 6.3 10^6nM, the Kinact [2] is reported as > 300 10^6nM and the Kinact [3] is reported as > 300 10^6nM. The Kinact [4] was 7.7 10^5nM.
